# System: P. aeruginosa (ATCC 27853)
# Assay: Radial diffusion assay
# Type: cell-based
# Conditions: for concentration achieving similar inhibition zones / enhancement of antimicrobial activity among derivatives D1-D7: Figure 6C
# Procedure: To identify library fractions and purified peptides with antibacterial activity a radial diffusion assay was carried out. Bacteria were cultured in liquid THY broth (Todd-Hewitt Broth [Oxoid, CM0189B] supplemented with 0.5% yeast extract [BD, Miami, USA, 212,750]) at 37°C overnight in a 5% CO2 atmosphere, pelleted by centrifugation and washed in 10 mM sodium phosphate buffer. Following resuspension in 10 mM sodium phosphate buffer optical density was determined spectrophotometrically at 600 nm (OD600nm). Bacterial density was adjusted to seed 2 × 10^7 bacteria into a petri dish in 1% agarose dissolved in 10 mM sodium phosphate buffer. Plates were allowed to cool for 30 min at 4°C before several 2–3 mm holes were placed into the 1% agarose. Freeze-dried fractions of the BAL library pool were reconstituted in 200 µl of ddH2O with 10 µl being used for the initial screen. Alternatively, peptides adjusted to the desired concentration in 10 µl of ddH2O were filled into the agar-holes. Following incubation at 37°C in ambient air for 3 h plates were overlaid with 10 ml of a 1% agarose solution containing 3% tryptic soy broth (TSB) dissolved in 10 mM phosphate buffer. Inhibition zones in cm were determined following 16–18 h incubation time at 37°C in a 5% CO2 atmosphere.
Sequence,times the amount needed compared to D7 at 25 µg/ml for similar inhibition zones,concentration achieving similar inhibition zones,enhancement of antimicrobial activity among derivatives D1-D7
RVNHVTLSQPKIVKW [B2M 101-115],2–4,50 to 100 µg/mL,
GVNHVKLSQIKIVKW [B2M D7],,25 µg/mL,most convincing enhancement of antimicrobial activity
GVNHVILSQIKIVKW [B2M D6],,,most convincing enhancement of antimicrobial activity

# Source: article PMC7588194 (Virulence, 2020)
